As a reminder, the fraction unbound is free concentration divided by total concentration. High values mean much free substance, low ones little free substance. The Tmax is the time from dosing to the highest level. One may read the AUC as concentration integrated over time. Low values mean less exposure, high ones more exposure. The term AUC(0-inf) denotes total exposure, with the tail of the curve extrapolated. Low values mean low exposure, high ones high exposure. A word on the Cmax: it is the peak of the concentration-time curve.

The values below come from US20070197591A1, “USE OF PALIPERIDONE FOR THE TREATMENT OF A MENTAL DISORDER IN A PSYCHIATRIC PATIENT WITH REDUCED HEPATIC FUNCTION” (priority 2005, published 2007).

Data set [1] in a line: Safety and tolerability of 1 mg IR paliperidone in healthy and hepatically-impaired subjects. It counts as in vivo, human. How it is done:
Methodology: This was a single-dose, parallel-group, open-label, single-center, Phase I study of IR paliperidone in subjects having either normal or moderately impaired hepatic function. The groups, consisting of 10 subjects each, were demographically matched with respect to age, weight, sex, and ethnicity. The study consisted of a screening period of up to 3 weeks and an open-label, single-dose treatment period (Days 1 through 5). On Day 1, a single dose of 1 mg IR paliperidone oral solution was administered after a fast of at least 10 hours; subjects continued to fast for 4 hours following study drug administration. The 96-hour follow-up consisted of serial sample collection of blood and urine for pharmacokinetic analysis and safety and tolerability assessments. Subjects remained confined to the study site through the 72-hour pharmacokinetics sampling, and consumed standard institutional meals while in the study site. Subjects were released after the 72-hour sampling, then returned to the study site on Day 5 before the 96-hour pharmacokinetics sampling: end-of-study procedures were performed immediately hereafter. A blood sample for DNA isolation was collected to allow for genetic analysis as necessary. Safety: Adverse events, clinical laboratory tests, including prolactin, vital sign measurements, physical examinations, and 12-lad electrocardiograms (ECGs) were analyzed to assess safety. Safety: All subjects were analyzed; statistical analyses were description [? Does info need to be added here?].

Data set [2] is described as follows: Plasma protein binding / unbound fraction of paliperidone and its enantiomers. The data set is classed as in vitro ADME, human. The conditions noted are these: human. From the text:
Objectives: The primary objective of this study was to investigate the single-dose pharmacokinetics of immediate-release (IR) paliperidone, after oral administration, in subjects having moderate hepatic impairment (“hepatically-impaired subjects”) compared with subjects having normal hepatic function (“healthy subjects”). The secondary objective was to document the plasma protein binding and disposition of the enantiomers of paliperidone. In addition, the tolerability and safety profile of IR paliperidone was compared between hepatically impaired subjects and healthy subjects. Criteria for Evaluation: Pharmacokinetics: Plasma and urine concentrations of the paliperidone enantiomers (+) R078543 and (−) R078544 were determined using an LC-MS/MS method. Concentrations of paliperidone were calculated as the sum of the enantiomer concentrations. In addition, serum and urine concentrations of creatinine were determined for the calculation of CLCR. The protein binding and unbound fraction was determined for the 2 paliperidone enantiomers. The unbound fraction for paliperidone was calculated.

The nature of the next data set: clinical. Details: species or system human. Conditions: in vivo. An excerpt: Objectives: to investigate the metabolic pathways of paliperidone and excretion of paliperidone and its metabolites in healthy adult male subjects, both CYP2D6 poor and extensive metabolizers, after administration of a single 1-mg oral dose of ^14C-paliperidone. In addition, to evaluate the safety and tolerability of paliperidone, as well as the relationship between genotypes (CYP2D6, CYP3A4, CYP3A5, UGT1A1, and UGT1A6) and exposure to paliperidone and its metabolites.
Methodology: Single-center, single-dose open-label study of the absorption, metabolism, and excretion (AME) of paliperidone in healthy men (3 extensive and 3 poor metabolizers based on CPY2D6 phenotype). […] Each subject received a single oral dose of ^14C-paliperidone with total radioactivity below […] (16 μCi). Blood samples for plasma pharmacokinetic profile were obtained immediately before study drug administration and 0.5, 1, 1.5, 3, 6, 12, 16, 36, 48, 72, 96, 120, 144 and 168 hours postdose. Blood samples were obtained 2, 4, 8, and 24 hours postdose for determination of ^14C in whole blood. Samples for determination of serum creatinine were obtained 2, 4, 8, and 24 hours postdose. Urine was collected immediately prior to drug administration and from 0-4, 4-8, 8-12, 12-16, 16-24, 24-36, 36-48, 48-72, 96-120, 120-144, and 144-168 hours after study drug administration. Fecal samples were colleted per each stool, once before study drug administration and in the period from 0-168 hours after study drug administration. Collections of urine and feces (per 24 hours) were to continue beyond 168 hours, to a maximum of 336 hours (Day 15) for subjects who excrete radioactivity slowly (2 latest 24-hour urine collections each >2% of total radioactive dose) or have <7 feces stool samples over the 0 to 168-hour period. ^14C radioactivity was measured in plasma, urine, and feces. Aliquots of the 0- through 24-hour urine collections were analyzed for cretinine. Plasma concentrations of paliperidone and risperidone were determined by means of a validated LC-MS/MS method. The ^14C-labeled moiety in plasma and urine was determined by liquid scintillation counting. For all plasma samples, the lower limits of quantification for paliperidone and risperidone were 0.100 ng/mL. For all plasma and urine samples the lower limits of quantification for ^14C-palieridone was 72 dpm/mL (=2.0 n g-eq/mL).
Number of Subjects (Planned and Analyzed): Six healthy men, 3 extensive and 3 poor metabolizers based on CYP2D6 phenotype were to participate in the study. Five subjects, 3 extensive and 2 poor metabolizers, received a single dose of ^14C-paliperidone, completed the study (i.e., completed all assessments through Day 8) and were considered valuable for safety (the Safety Analysis Set), as well as for pharmacokinetics.
Test Product, Dose and Mode of Administration Batch No.: Single oral 0.988-mg dose of ^14C-paliperidone, oral solution (aqueous formulation at a final concentration of 0.0984 mg/mL). Batch No.: unlabeled paliperidone oral solution: ZR076477EIA031 (manufacturing date: 23 Apr. 2003, retest date: 23 Oct. 2004): ^14C-paliperidone: 1763 (expiration date: not applicable)
Criteria for Evaluation: Pharmacokinetics: Plasma paliperidone. ^14C radioactivity and metabolite profiles were determined. Plasma Cmax, tmax, AUClast, AUC24, AUC∞, λZ, t1/2term, CL/F of ^14C and paliperidone were estimated by non-compartmental analysis. Based on the individual urine excretion data and on the serum creatinine concentrations, Ae, Ae, % dose, CLR, CLR,24h and CLer and paliperidone and CLGFR, and CLact of paliperidone were estimated. The excretion half-life of ^14C in urine was also estimated based on excretion rate-time profiles.
Statistical Methods: Pharmacokinetics: Plasma concentrations of ^14C and paliperdone as well as estimates for pharmacokinetic parameters were listed and graphically presented, and the excretion analysis of total radioactivity in plasma, urine and feces were summarized. […]

The mark [3] stands for this setting: hepatically-impaired subjects (n = 10).

With `Cc1nc2n(c(=O)c1CCN1CCC(c3noc4cc(F)ccc34)CC1)CCCC2O` (centres unmarked) [Paliperidone, paliperidone], the tolerability result in data set [1] (1 mg, healthy and hepatically-impaired subjects) is given as “tolerated equally well”. Also, the “clinically important abnormal ECG values (including QT values)” value in data set [1] (both groups) was “no subjects had clinically important abnormal ECG values”. The orthostatic hypotension entry in data set [1] (both groups) is given as “no subject in either group met the criteria for orthostatic hypotension”. The “subjects with treatment-emergent increase in hepatic enzymes” value in data set [1] (healthy subjects) and in data set [1] (hepatically-impaired subjects) was 1 each time. The “subjects with increases in prolactin levels reported as adverse events” value in data set [1] (healthy subjects (n = 10)) came out at 6; in data set [1] (setting [3]), 8. In data set [1] (setting [3]), this compound had a subjects reporting dizziness of 2. The free fraction (fraction unbound) in data set [2] (Healthy Subjects (n = 10)) was found to be 0.279; in data set [2] (Hepatically-Impaired Subjects (n = 10; paliperidone n = 8)) it was 0.353. Also, the relative increase in unbound fraction vs healthy subjects in data set [2] (vs healthy subjects, read-out: unbound fraction higher in hepatically-impaired subjects) is roughly 0.27. In the data set “clinical”, the “effect of genotype (CYP2D6, UGT1A1 or UGT1A6) on the plasma exposure of TR and UD” value is given as “No effect of genotype”. The “share of UD excreted by means of filtration” value in the data set “clinical” (male, human) is “About 50%”. The CL renal in the data set “clinical” (male, human, CLR) was 53.1 ± 9.47 mL/min. The Tmax turned out to be 1.33 ± 0.289 h in “clinical” (male, human, po) and 1.3 h in the data set “clinical” (male, human, po, tmax). Besides, in the data set “clinical” (male, human, po, 7 days), the “cumulative urinary excretion of unchanged paliperidone” value was 59%. Moreover, in “clinical” (male, human, po, AUC24), the AUC turned out to be 111 ± 22 ng·h/mL. The same compound returned an AUC(0-inf) in the data set “clinical” (male, human, po, AUC∞) of 187 ng·h/mL. In the data set “clinical” (male, human, po, Cmax), this compound had a Cmax of 8.85 ng/mL.
